The values that follow come from PMC4875998, “Liposomal Systems as Nanocarriers for the Antiviral Agent Ivermectin” (International Journal of Biomaterials, 2016).

The nature of data set [1]: Cytotoxicity (methylene blue / MTS assay), CC50. The conditions noted are these: African green monkey, Vero-118 cells.
The nature of data set [2]: Cytotoxicity (methylene blue / MTS assay), CC50. The settings on record: mouse, RAW 264.7 cells. (Formazan colour is commonly taken as a measure of viable cells.)
A short description of data set [3]: Cytotoxicity (methylene blue / MTS assay), CC50. The settings on record: hamster, BHK cells.
The next data set relates to Dengue Fever. On the set-up: method as in PMID 22535622. The conditions noted are these: in vitro; cited from earlier work.
Data set [4] in a line: Cytotoxicity (methylene blue / MTS assay), CC50. The conditions noted are these: African green monkey, Vero-F cells.
Another data set deals with Vero-118 cells. The experiment in a line: Cytotoxicity (methylene blue / MTS assay), CC50. The conditions noted are these: cell lines of Figure 6(b) / Table 2 (Vero-118, BHK, RAW).
The test system of another data set is Yellow Fever. The conditions noted are these: in vitro; cited from earlier work.
A short description of a further data set: Cytotoxicity, CC50. The conditions noted are these: human, Half maximal cytotoxic concentration (CC50) Huh-7, Huh-7 cells; value not marked with the 48 h footnote.
The test system of another data set is Huh-7 cells. Briefly: Cytotoxicity, CC50. The conditions noted are these: read-out: Half maximal cytotoxic concentration (CC50) Huh-7; Huh-7 cells; value not marked with the 48 h footnote.
In the next data set the test system is Japanese encephalitis. On the set-up: method as in PMID 22535622. The conditions noted are these: in vitro; cited from earlier work.
Data set [5] has as its system tick-borne encephalitis viruses. The conditions noted are these: in vitro; cited from earlier work.

Take `C[C@@]1(O)[C@H](O)[C@@H](CO)O[C@H]1n1ccc(N)nc1=O` [2-cmc, 2′-c-Methylcytidine]: the CC50 at 4 days in [1] came to 117 µM; in [2] it was 37.6 µM; in data set [3] it was 238 µM.

Take `CC[C@H](C)[C@H]1O[C@]2(CC[C@@H]1C)C[C@@H]1C[C@@H](C/C=C(\C)[C@@H](O[C@H]3C[C@H](OC)[C@@H](O[C@H]4C[C@H](OC)[C@@H](O)[C@H](C)O4)[C@H](C)O3)[C@@H](C)/C=C/C=C3\CO[C@@H]4[C@H](O)C(C)=C[C@@H](C(=O)O1)[C@]34O)O2` [Ivermectin, 22,23-dihydroavermectin B1]: the EC50 result with Dengue Fever is reported as “submicromolar”; in the data set with Yellow Fever it was “subnanomolar range”; with Japanese encephalitis, “submicromolar”; in [5] it was “submicromolar”. In addition, the CC50 at 4 days in [4] came to 23.6 µM; in [1], 5.7 µM; in [2] it was 0.8 µM; in data set [3], 1.5 µM. Besides, in the data set with Vero-118 cells, the “Times more cytotoxic in comparison to 2-cmc” value is 10 times. The CC50 in “Cytotoxicity, CC50” amounted to 7.3 µM; with Huh-7 cells, 10 µM.
